Experimental data reported in patent US7326710B2, “Aralkyl formyl-alkyl piperazine derivatives and their uses as a cerebral nerve protective agent” (Shanghai Institute of Pharmaceutical Industry, priority 2002, dated 2008).
Like-named read-outs stand apart in the source and are kept apart here. Marks after values point to notes of the source that are not given here.

What was measured:
[1] = tested on: NMDA receptor; experiment: Maximum contraction of isolated guinea pig longitudinal ileum muscle preparations induced by L-Glu; details: compound 10^−5M; contraction induced by L-Glu
Description: According to the literature (Luzzi, Br J Pharmacol, 95:1271, 1988), maximum contraction of isolated longitudinal ileomuscle preparations of guinea pig induced by L-Glu, were used to examine the activities of the compounds on the NMDA receptor.

[2] = tested on: focal cerebral ischemia in rats; experiment: Focal cerebral ischemia in rats by occlusion of middle cerebral artery (MCA); format: in vivo; details: 20 mg/kg p.o.
Protocol: The focal ischemia rat model by occlusion of middle cerebral artery (MCA) was used to determine the protective effects of the compounds on focal cerebral ischemia. The infarct size after focal cerebral ischemia and the weight percentage of cerebral hemisphere were calculated to evaluate the compounds' effects on focal cerebral ischemia.

[3] = tested on: cerebral anoxia in mice; experiment: Anoxic anoxia experiment in mice (closed wide-mouth bottles with soda lime); format: in vivo, Male Kunming mice; details: for ED50: Mus musculus, sc, survival time in anoxic anoxia
Protocol: Methods: Male Kunming mice were divided into 8 groups, 12 mice for each group. One group is injected subcutaneously with saline ([…], sc), other groups with ACEA1021 (NMDA receptor antagonist under clinical trial) or IV-23. 30 minutes after administration, the animals were put separately into wide-mouth bottles with soda lime, which more quickly closed. The survival time for each mice was recorded, and the group average of survival time was calculated and compared with the saline group.

[4] = tested on: global cerebral ischemia-reperfusion injury in rats; experiment: Global cerebral ischemia-reperfusion in rats, four arteries reversible occlusion; format: in vivo
Description: The effect of IV-23 on cerebral ischemia-reperfusion in rats was studied using four arteries reversible occlusion by measuring the recovering time of the electroencephalogram and the righting reflex (a short time indicates a strong effect).

[5] = tested on: focal cerebral ischemia in rats; experiment: Focal cerebral infarction, electrical coagulation to occlude MCA; format: in vivo; set-up: The neurological deficit score After the operation / The neurological deficit score 24 h: scale not given here
Protocol: a. The Focal Cerebral-Infarction of Using Electrical Coagulation to Occlude MCA:
For the 5 mg/kg group, the percentage of the rat's infarct size was decreased, but the difference is not significant (p=0.098). The effect is not significant for the Nimodipine mg/kg.

[6] = tested on: focal cerebral ischemia in rats; experiment: Focal brain injury, occlusion of MCA induced by photochemical reaction; format: in vivo
Protocol: a. Focal brain injury caused by photochemical induction of occlusion of the artery:
The percentage of infarction was lowered by 52% at 24 hours after operation.

[7] = tested on: focal cerebral ischemia in rats; experiment: Temporary occlusion of the right MCA in rats caused by suture; format: in vivo; details: for Percent of volume (Means ± SEM) / Percent of infarct (%) (Means ± SEM): rats; for Percent of volume (Means ± SEM): length of ischemia 6 hr
Description: b. Temporary occlusion of the right MCA in rats caused by suture.

[8] = tested on: NMDA receptor; experiment: Whole-cell patch clamp, current induced by NMDA in isolated rat CA1 pyramidal neuron; format: cell-based; details: NMDA 100 μm, n=4, read-out: IC50, inhibition of the electric current induced by NMDA
Protocol: Methods: The whole-cell patch-clamp technique. Separate the rat's hippocampi, slash the brain piece into 500 μm thick. Get the CA1 area of hippocampi, put it into artificial cerebral spinal fluid (ACSF) to incubate for more than 1 hour. Then the solution is oxygen saturated. After the incubation of the brain piece, put it into ACSF with protease XIII (1 mg/ml) for 5 minutes. Using trypsin inhibitor type II-S (3 mg/ml) to terminate the protease digestion, and then using test tube to break the brain piece to obtain free cells, let it stand for a while and then start the experiment.
The electro-physiological experiment used the technique of whole-cell patch-clamp. The amplifier in the experiment is Axon-200A patch-clamp amplifier, with the DigiData-1200A as a sampling port. The software used is AxoScope Version 1.0. The experiment uses as a standard the electric current generated by the whole-cell. The effect of various samples on the electric current was observed. IC50 was determined by proportion of different concentrations to the electric current of NMDA.

[9] = tested on: primary culture of rat cerebral cortical neuronal cells; experiment: Protective effect on neurons damaged with NMDA, LDH activity; format: cell-based; details: NMDA 1 mmol/L
Description: Primary culture of rat cerebral cortical neuronal cells were used. […] This is further evidence that IV-23 is a new NMDA receptor antagonist, and has anti-cerebral ischemic injury functions as well.

[10] = Acute toxicity; details: mouse, in vivo, mice, read-out: LD50 (95% confidence limit)
[11] = Ames test; format: cell-based
Description: The Ames test of IV-23 was negative.

[12] = tested on: rodent; experiment: Rodent microkernel experiment; details: in vivo
Description: The rodent microkernel experiment of IV-23 was negative.

[13] = tested on: mammalian cultural cell; experiment: Chromosome aberration trial in mammalian cultural cell; format: cell-based
Description: The chromosome aberration trial in mammalian cultural cell was negative.

[14] = tested on: rats platelet aggregation induced by ADP; experiment: Platelet aggregation induced by ADP; format: cell-based; details: concentration 1×10^−4M
[15] = tested on: focal cerebral ischemia in rats; experiment: Focal cerebral infarction, electrical coagulation to occlude MCA; format: in vivo; set-up: The neurological deficit score After the operation / The neurological deficit score 24 h: scale not given here; remark: listed apart in the source
[16] = tested on: anoxia induced by sodium nitrite in mice; experiment: Anti-cerebral anoxia in mice, anoxia induced by sodium nitrite; format: in vivo; details: Mus musculus, sc, mice; sodium nitrite 225 mg/kg ip; compound 20 mg/kg sc; read-out: Prolonging the survival duration (%)
Protocol: The rates of the prolongation of 9 compounds (IV-2, 10, 23, 32, 34, 36, 39, 40, 41) were more than 50%, which indicated the effect of anti-cerebral anoxia. IV-23 and IV-2 prolonged the survival duration by 100% of the animals, showing remarkably protective action for cerebral anoxia. (Table 3)
One model was established to test the time needed for mice to die because of anoxia caused by sodium nitrite (225 mg/kg, ip). IV-23 (20 mg/kg, sc) can prolong the time for 100%, indicating significant anti-cerebral anoxic anoxia activity.

In the case of `O=C(CN1CCN(CC(=O)c2ccccc2)CC1)NCc1ccccc1` [IV-23, N^1-phenacyl-N^4-[2-(benzylamino)-2-oxo-ethyl] piperazine], the “antagonism % (restrain rate of contraction of preparations)” value [1] is reported as 40%, the “Infarct volume” value [2] is reported as 0.057 ± 0.012 g and the “Neurological deficit After operation” value [2] is reported as 9.4 ± 1.5. For the same compound, the “Average survival time (min)(means ± S.E.M.)” value (from here on “Average survival time”) ([3]; 10 mg/kg sc) was 16.46 ± 0.89 min, the “Average survival time” value ([3]; 20 mg/kg sc) was 17.11 ± 0.53 min and the “Average survival time” value ([3]; 40 mg/kg sc) was 19.26 ± 0.91 min. The “Average survival time” value ([3]; 80 mg/kg sc) was 20.04 ± 1.56 min, the ED50 [3] was 6.2 mg/kg and the “Time for electroencephalogram to disappear(S)” value ([4]; High-dose (20 mg/kg ip)) was 566.3 ± 430.3^*Δ S. For the same compound, the “Time for electroencephalogram to recover (S)” value ([4]; High-dose (20 mg/kg ip)) was 70.3 ± 20.1^***ΔΔΔ S, the “Time for righting reflex to recover (S)” value ([4]; High-dose (20 mg/kg ip)) was 147.0 ± 123.1^*ΔΔΔ S and the “Time for electroencephalogram to disappear(S)” value ([4]; Low-dose (5 mg/kg ip)) was 275.5 ± 338.1^*Δ S. The “Time for electroencephalogram to recover (S)” value ([4]; Low-dose (5 mg/kg ip)) was 184.6 ± 214.1^***ΔΔΔ S, the “Time for righting reflex to recover (S)” value ([4]; Low-dose (5 mg/kg ip)) was 550.0 ± 282.5^*ΔΔΔ S and the “Time for electroencephalogram to disappear(S)” value ([4]; Middle-dose (10 mg/kg ip)) was 557.1 ± 639.4^*Δ S. The “Time for electroencephalogram to recover (S)” value ([4]; Middle-dose (10 mg/kg ip)) was 334.3 ± 674.3^***ΔΔΔ S, the “Time for righting reflex to recover (S)” value ([4]; Middle-dose (10 mg/kg ip)) was 822.8 ± 741.9^*ΔΔ S and the “The neurological deficit score 24 h” value ([5]; Low-dose (5 mg/kg)) was 8.1 ± 2.0. The “The neurological deficit score After the operation” value ([5]; Low-dose (5 mg/kg)) was 9.7 ± 0.5, the “The percentage of infarction (%)” value ([5]; Low-dose (5 mg/kg)) was 20.8 ± 8.8 % and the “The weight of infarct area” value ([5]; Low-dose (5 mg/kg)) was 0.15 ± 0.06 g. The “The neurological deficit score 24 h” value ([5]; middle-dose (10 mg/kg)) was 5.6 ± 2.7, the “The neurological deficit score After the operation” value ([5]; middle-dose (10 mg/kg)) was 9.6 ± 0.5 and the “percentage of infarction lowered by” value ([6]; compared with vehicle (saline), 24 hours after operation) was 52%. The “Necrotic percent (%)” value ([6]; rats, 2 mg/kg) was 11 ± 3***^ΔΔΔ %, the “Score of praxiology After operation” value ([6]; rats, 2 mg/kg) was 9.6 ± 0.5 and the “Weight of necrotic area (g)” value ([6]; rats, 2 mg/kg) was 0.08 ± 0.02***^ΔΔΔ g. The “Score of praxiology 24 h” value ([6]; rats, 2 mg/kg) was 5.4 ± 1.9***^Δ, the “reduce the volume (of cerebral infarction) by” value ([7]; 5 mg/kg, after 3 hours of ischemia) was 46.3% and the “Percent of volume (Means ± SEM)” value ([7]; 2.5 mg/kg) was 15.42 ± 1.71%. For the same compound, the “Percent of volume (Means ± SEM)” value ([7]; 5 mg/kg) was 12.90 ± 1.11%, the “Percent of infarct (%) (Means ± SEM)” value ([7]; 5 mg/kg, time of occlusion 1 hr) was 1.31 ± 0.50% and the “Percent of infarct (%) (Means ± SEM)” value ([7]; 5 mg/kg, time of occlusion 3 hr) was 8.57 ± 1.42%. The “Percent of infarct (%) (Means ± SEM)” value ([7]; 5 mg/kg, time of occlusion 6 hr) was 12.90 ± 1.11%, the “Percent of volume (Means ± SEM)” value ([7]; 10 mg/kg) was 14.92 ± 1.40% and the IC50 [8] was 562.7 ± 1.1 µM. For the same compound, the “LDH activities (U/g protein) (mean ± SEM)” value ([9]; Concentration 10) was 1.86 ± 0.20 U/g protein, the “Protective rate (%)” value ([9]; Concentration 10) was 0% and the “LDH activities (U/g protein) (mean ± SEM)” value ([9]; Concentration 50) was 1.23 ± 0.14 U/g protein. For the same compound, the “Protective rate (%)” value ([9]; Concentration 50) was 48.1%, the “LDH activities (U/g protein) (mean ± SEM)” value ([9]; Concentration 100) was 1.05 ± 0.16 U/g protein and the “Protective rate (%)” value ([9]; Concentration 100) was 65.1%. The “LDH activities (U/g protein) (mean ± SEM)” value ([9]; Concentration 200) was 0.79 ± 0.19 U/g protein, the “Protective rate (%)” value ([9]; Concentration 200) was 89.6% and the LD50 ([10]; iv, i.v.) was 133 mg/kg. The LD50 ([10]; po, p.o.) was 856 mg/kg, the Ames test [11] was “negative” and the rodent microkernel experiment [12] was “negative”. The chromosome aberration trial [13] was “negative”, the “inhibition of platelet aggregation induced by ADP” value [14] was “did inhibit” and the “The neurological deficit score 24 h” value ([15]; High-dose (20 mg/kg)) was 6.7 ± 2.6. The “The neurological deficit score After the operation” value ([15]; High-dose (20 mg/kg)) was 9.7 ± 0.5, the “The percentage of infarction (%)” value ([15]; High-dose (20 mg/kg)) was 14.2 ± 6.8 % and the “The weight of infarct area” value ([15]; High-dose (20 mg/kg)) was 0.11 ± 0.05 g. For the same compound, the “The percentage of infarction (%)” value ([15]; middle-dose (10 mg/kg)) was 13.4 ± 8.4 % and the “The weight of infarct area” value ([15]; middle-dose (10 mg/kg)) was 0.10 ± 0.06 g.

In the case of `O=c1[nH]c2cc(Cl)c(Cl)c([N+](=O)[O-])c2[nH]c1=O` [ACEA-1021, reference compound], the “Average survival time” value ([3]; 2.5 mg/kg sc) is reported as 17.33 ± 1.18 min, the “Average survival time” value ([3]; 5 mg/kg sc) is reported as 18.20 ± 0.82 min and the “Average survival time” value ([3]; 10 mg/kg sc) is reported as 19.47 ± 1.17 min. The “Average survival time” value ([3]; 20 mg/kg sc) was 20.04 ± 1.38 min, the ED50 [3] was 29.2 mg/kg and the “Necrotic percent (%)” value ([6]; rats, 2 mg/kg) was 17 ± 2 %. For the same compound, the “Score of praxiology After operation” value ([6]; rats, 2 mg/kg) was 9.5 ± 0.5, the “Weight of necrotic area” value ([6]; rats, 2 mg/kg) was 0.12 ± 0.02 g and the “Score of praxiology 24 h” value ([6]; rats, 2 mg/kg) was 7.1 ± 1.9. The “Percent of volume (Means ± SEM)” value ([7]; 10 mg/kg) was 12.73 ± 1.24%.

In the case of `O=C(CN1CCN(CC=Cc2ccccc2)CC1)NCc1ccccc1` [IV-21, N1-[2-(benzylamino)-2-oxo-ethyl]-N^4-cinnamyl piperazine], the ILS at 20 mg/kg [16] is reported as 33%, the “Infarct volume” value [2] is reported as 0.12 ± 0.07 g and the “Neurological deficit After operation” value [2] is reported as 9.8 ± 0.5. For the same compound, the “Percentage of infarct volume (%)” value [2] was 15.53 ± 8.27 % and the “Neurological deficit 24 h” value ([2]; 24 h after operation) was 6.8 ± 2.5.
